{
  "source": "patent US20260042769A1",
  "about": "“TRIARYL AGONISTS OF ALPHA-2 ADRENERGIC RECEPTORS” (ALCEPTOR THERAPEUTICS, INC., priority 2023, published 2026)",
  "biological_target": "T1, human ADRA2B receptor (Homo sapiens, UniProt P18089)",
  "T1 construct": "expressed in transfected cells",
  "T1 sequence (P18089 1-450)": "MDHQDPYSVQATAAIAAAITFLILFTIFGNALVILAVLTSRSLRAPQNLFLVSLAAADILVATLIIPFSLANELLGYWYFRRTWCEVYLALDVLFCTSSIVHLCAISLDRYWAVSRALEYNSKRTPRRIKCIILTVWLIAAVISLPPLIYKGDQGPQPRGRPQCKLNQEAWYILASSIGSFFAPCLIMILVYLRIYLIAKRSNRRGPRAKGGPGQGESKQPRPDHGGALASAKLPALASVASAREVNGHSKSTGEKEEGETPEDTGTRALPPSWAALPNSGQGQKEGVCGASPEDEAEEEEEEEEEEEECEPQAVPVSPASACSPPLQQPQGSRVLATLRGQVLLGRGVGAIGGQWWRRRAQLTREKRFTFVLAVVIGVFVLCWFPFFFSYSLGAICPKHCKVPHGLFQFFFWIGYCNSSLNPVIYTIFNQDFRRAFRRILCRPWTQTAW",
  "test": "GTPγS agonist assay, ADRA2B receptor",
  "format": "biochemical",
  "conditions": "read-out: GTPase - Human Alpha2B EC50",
  "description": "GTP ? S Agonist Assays (ADRA2A, ADRA2B, and ADRA2C Receptors)\nMembranes were prepared for GTP ? S binding assays from CHO-K1 cells stably expressing human ADRA2A, ADRA2B, or ADRA2C receptor. Briefly, cells were grown in 5-layer cell culture flasks. Cells were washed with 50 mL of PBS and then dissociated with 0.05% trypsin. Dissociated cells were then collected by centrifugation at 650×g for 8 min at 4° C. Pellets were washed again in PBS by centrifugation and resuspended in 30 mL of 20 mM HEPES, 10 mM EDTA, pH 7.4. After sitting on ice for 30 min, membranes were collected by centrifugation at 50000×g for 15 min at 4° C., resuspended in 30 mL of 20 mM HEPES, 0.1 mM EDTA, pH 7.4 and collected again by centrifugation. Pellets were then washed twice by centrifugation in 30 mL of 20 mM HEPES, pH 7.4, and stored at −80° C. until the day of the assay. On the day of the assay, pellets were thawed on ice and resuspended in 1 mL of 20 mM HEPES, pH 7.4, 10 mM MgCl2, 100 mM NaCl using dounce homogenization. Membrane protein concentration was determined by BCA protein assay (Promega, Madison, WI) according to Promega guidelines.\nOn the day of the assay, serial dilutions of test compounds were brought up in assay buffer (20 mM HEPES, 10 mM MgCl2, 200 mM NaCl) at 10× final assay concentration. 50 μL/well of membrane homogenates (containing 5 μg of membrane protein for ADRA2A, ADRA2B, or 7.5 μg for ADRA2C) were prepared in assay buffer supplemented with GDP at 2× final assay concentration (5 μM GDP) and dispensed into 96 well polypropylene, U-bottom Greiner plates. Then, 10 μL of compounds were added to assay plates and incubated for 10 min at room temperature. […] The binding reaction was incubated for 1 h at 37° C. Membranes in assay reactions were then transferred to GF/C filter plates (UniFilter, Perkin Elmer) and washed three times using a FilterMate Harvester (Perkin Elmer) with cold assay buffer containing no GDP. Filter plates were then dried at 40° C. overnight followed by the addition of 30 μL/well of Beta Plate Scintillation liquid. Plates were top and bottom sealed before being read on TopCount scintillation counter (Perkin Elmer, Waltham, MA).",
  "data": [
    {"compound": "COc1cccc(C[C@H](c2c[nH]cn2)c2cccc(C)c2F)n1", "note": "(single isomer, unassigned) [Compound 5]", "values": [
      {"measurement": "EC50", "result": "< 10", "unit": "nM"}
    ]},
    {"compound": "COc1cccc(C[C@@H](c2c[nH]cn2)c2cccc(C)c2F)n1", "note": "(single isomer, unassigned) [Compound 6]", "values": [
      {"measurement": "EC50", "result": "50 to 500", "unit": "nM"}
    ]},
    {"compound": "c1cnnc(C[C@@H](c2c[nH]cn2)c2cccc3c2OCC3)c1", "note": "(single isomer, unassigned) [Compound 362]", "values": [
      {"measurement": "EC50", "result": "10 to 50", "unit": "nM"}
    ]},
    {"compound": "COc1cccc(C[C@H](c2c[nH]cn2)c2cccc(C)c2C)n1", "note": "[Compound 3, 2-[(2S)-2-(2,3-dimethylphenyl)-2-(1H-imidazol-4-yl)ethyl]-6-methoxypyridine]", "values": [
      {"measurement": "EC50", "result": "< 10", "unit": "nM"}
    ]},
    {"compound": "COc1cccc(C[C@@H](c2c[nH]cn2)c2cccc(C)c2C)n1", "note": "[Compound 4, 2-[(2R)-2-(2,3-dimethylphenyl)-2-(1H-imidazol-4-yl)ethyl]-6-methoxypyridine]", "values": [
      {"measurement": "EC50", "result": "50 to 500", "unit": "nM"}
    ]},
    {"compound": "COc1cccc(C[C@H](c2c[nH]cn2)c2cccc(Cl)c2OC)n1", "note": "[Compound 7, 2-[(2S)-2-(3-chloro-2-methoxyphenyl)-2-(1H-imidazol-4-yl)ethyl]-6-methoxypyridine]", "values": [
      {"measurement": "EC50", "result": "10 to 50", "unit": "nM"}
    ]},
    {"compound": "COc1cccc(C[C@@H](c2c[nH]cn2)c2cccc(Cl)c2OC)n1", "note": "[Compound 8, 2-[(2R)-2-(3-chloro-2-methoxyphenyl)-2-(1H-imidazol-4-yl)ethyl]-6-methoxypyridine]", "values": [
      {"measurement": "EC50", "result": "> 500", "unit": "nM"}
    ]},
    {"compound": "COc1cccc(C[C@H](c2cnc[nH]2)c2cccc(C)c2OC)n1", "note": "[Compound 9, 2-[(2S)-2-(1H-imidazol-4-yl)-2-(2-methoxy-3-methylphenyl)ethyl]-6-methoxypyridine]", "values": [
      {"measurement": "EC50", "result": "< 10", "unit": "nM"}
    ]},
    {"compound": "COc1cccc(C[C@@H](c2cnc[nH]2)c2cccc(C)c2OC)n1", "note": "[Compound 10, 2-[(2R)-2-(1H-imidazol-4-yl)-2-(2-methoxy-3-methylphenyl)ethyl]-6-methoxypyridine]", "values": [
      {"measurement": "EC50", "result": "> 500", "unit": "nM"}
    ]},
    {"compound": "COc1cccc(C[C@H](c2cnc[nH]2)c2cccc3c2COC3)n1", "note": "[Compound 11, 2-[(2S)-2-(1,3-dihydro-2-benzofuran-4-yl)-2-(1H-imidazol-4-yl)ethyl]-6-methoxypyridine]", "values": [
      {"measurement": "EC50", "result": "< 10", "unit": "nM"}
    ]},
    {"compound": "COc1cccc(C[C@@H](c2cnc[nH]2)c2cccc3c2COC3)n1", "note": "[Compound 12, 2-[(2R)-2-(1,3-dihydro-2-benzofuran-4-yl)-2-(1H-imidazol-4-yl)ethyl]-6-methoxypyridine]", "values": [
      {"measurement": "EC50", "result": "> 500", "unit": "nM"}
    ]},
    {"compound": "COc1cccc(CC(c2c[nH]cn2)c2ccnc(C)c2C)n1", "note": "(stereo not drawn) [Compound 13, 4-[1-(1H-imidazol-4-yl)-2-(6-methoxypyridin-2-yl)ethyl]-2,3-dimethylpyridine]", "values": [
      {"measurement": "EC50", "result": "> 500", "unit": "nM"}
    ]},
    {"compound": "COc1cccc(C[C@H](c2c[nH]cn2)c2cccc(Cl)c2C)n1", "note": "[Compound 14, 2-[(2S)-2-(3-chloro-2-methylphenyl)-2-(1H-imidazol-4-yl)ethyl]-6-methoxypyridine]", "values": [
      {"measurement": "EC50", "result": "50 to 500", "unit": "nM"}
    ]},
    {"compound": "COc1cccc(C[C@@H](c2cnc[nH]2)c2cccc(Cl)c2C)n1", "note": "[Compound 15, 2-[(2R)-2-(3-chloro-2-methylphenyl)-2-(1H-imidazol-4-yl)ethyl]-6-methoxypyridine]", "values": [
      {"measurement": "EC50", "result": "< 10", "unit": "nM"}
    ]},
    {"compound": "COc1cccc(C[C@H](c2c[nH]cn2)c2cccc3c2OCC3)n1", "note": "[Compound 16, 2-[(2S)-2-(2,3-dihydro-1-benzofuran-7-yl)-2-(1H-imidazol-4-yl)ethyl]-6-methoxypyridine]", "values": [
      {"measurement": "EC50", "result": "< 10", "unit": "nM"}
    ]},
    {"compound": "COc1cccc(C[C@@H](c2cnc[nH]2)c2cccc3c2OCC3)n1", "note": "[Compound 17, 2-[(2R)-2-(2,3-dihydro-1-benzofuran-7-yl)-2-(1H-imidazol-4-yl)ethyl]-6-methoxypyridine]", "values": [
      {"measurement": "EC50", "result": "50 to 500", "unit": "nM"}
    ]},
    {"compound": "COc1cccc(C[C@H](c2c[nH]cn2)c2cccc3c2CCO3)n1", "note": "[Compound 18, 2-[(2S)-2-(2,3-dihydro-1-benzofuran-4-yl)-2-(1H-imidazol-4-yl)ethyl]-6-methoxypyridine]", "values": [
      {"measurement": "EC50", "result": "> 500", "unit": "nM"}
    ]},
    {"compound": "COc1cccc(C[C@@H](c2cnc[nH]2)c2cccc3c2CCO3)n1", "note": "[Compound 19, 2-[(2R)-2-(2,3-dihydro-1-benzofuran-4-yl)-2-(1H-imidazol-4-yl)ethyl]-6-methoxypyridine]", "values": [
      {"measurement": "EC50", "result": "10 to 50", "unit": "nM"}
    ]}
  ]
}
